# Source: the supplement of paper PMC10307832
# Legend:
# Assay in all cases: relative viability (nuclei count vs DMSO), 5 days (fraction); higher = more cells survive
# Dabrafenib + Pemetrexed = compound: CC(C)(C)c1nc(-c2cccc(NS(=O)(=O)c3c(F)cccc3F)c2F)c(-c2ccnc(N)n2)s1 [Dabrafenib] + Nc1nc2[nH]cc(CCc3ccc(C(=O)N[C@@H](CCC(=O)O)C(=O)O)cc3)c2c(=O)[nH]1 [Pemetrexed] (partner 0.2 µM)
# In short: (§1)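 Five library-drug doses in √10 steps were combined with a fixed anchor-drug dose, or a single drug was given alone, by pin tool to lung cancer cell lines in 1536-well plates the day after seeding. Nuclei were stained and counted after 5 days. Relative viability is the nuclei count in treated wells over that in vehicle wells, taken as the median of duplicate plates.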
# VX-702 + OSI-027 = compound: NC(=O)c1ccc(N(C(N)=O)c2c(F)cccc2F)nc1-c1ccc(F)cc1F [VX-702] + COc1cccc2cc(-c3nc([C@H]4CC[C@H](C(=O)O)CC4)n4ncnc(N)c34)[nH]c12 [OSI-027] (partner 0.5 µM)
# In short: as §1
# Dabrafenib + Luminespib = compound: CC(C)(C)c1nc(-c2cccc(NS(=O)(=O)c3c(F)cccc3F)c2F)c(-c2ccnc(N)n2)s1 [Dabrafenib] + CCNC(=O)c1noc(-c2cc(C(C)C)c(O)cc2O)c1-c1ccc(CN2CCOCC2)cc1 [Luminespib] (partner 0.01 µM)
# In short: as §1
# Dabrafenib + Crizotinib = compound: CC(C)(C)c1nc(-c2cccc(NS(=O)(=O)c3c(F)cccc3F)c2F)c(-c2ccnc(N)n2)s1 [Dabrafenib] + C[C@@H](Oc1cc(-c2cnn(C3CCNCC3)c2)cnc1N)c1c(Cl)ccc(F)c1Cl [Crizotinib] (partner 1 µM)
# In short: as §1
Cell Line,relative viability (Dabrafenib + Pemetrexed; first compound 0.003 µM),relative viability (Dabrafenib + Pemetrexed; first compound 0.009487 µM),relative viability (Dabrafenib + Pemetrexed; first compound 0.03 µM),relative viability (Dabrafenib + Pemetrexed; first compound 0.09487 µM),relative viability (Dabrafenib + Pemetrexed; first compound 0.3 µM),relative viability (VX-702 + OSI-027; first compound 0.02 µM),relative viability (VX-702 + OSI-027; first compound 0.2 µM),relative viability (VX-702 + OSI-027; first compound 0.6325 µM),relative viability (VX-702 + OSI-027; first compound 2 µM),relative viability (Dabrafenib + Luminespib; first compound 0.003 µM),relative viability (Dabrafenib + Luminespib; first compound 0.009487 µM),relative viability (Dabrafenib + Luminespib; first compound 0.03 µM),relative viability (Dabrafenib + Luminespib; first compound 0.09487 µM),relative viability (Dabrafenib + Luminespib; first compound 0.3 µM),relative viability (Dabrafenib + Crizotinib; first compound 0.003 µM),relative viability (Dabrafenib + Crizotinib; first compound 0.009487 µM),relative viability (Dabrafenib + Crizotinib; first compound 0.03 µM),relative viability (Dabrafenib + Crizotinib; first compound 0.09487 µM),relative viability (Dabrafenib + Crizotinib; first compound 0.3 µM)
NCI-H1944,0.569,0.58,0.587,0.444,0.668,0.396,0.398,0.39,0.206,0.707,0.839,0.733,0.682,0.717,1.13,1.09,1.05,0.971,1.03
NCI-H1975,0.304,0.282,0.272,0.28,0.292,0.753,0.756,0.829,0.779,0.159,0.189,0.165,0.278,0.191,0.967,0.968,0.881,0.938,0.87
NCI-H1993,0.575,0.571,0.619,0.55,0.669,0.516,0.518,0.563,0.579,0.68,0.984,0.812,0.828,1.06,0.86,0.946,0.826,0.929,1.06
NCI-H2009,0.997,0.956,0.818,0.761,0.701,0.688,0.88,0.774,0.801,1.01,0.967,0.911,0.879,0.79,0.973,1.01,1.02,0.697,0.662
NCI-H2023,0.229,0.247,0.207,0.211,0.255,0.349,0.445,0.441,0.416,0.866,0.817,0.755,0.661,0.84,0.745,0.651,0.651,0.876,0.802
NCI-H2085,0.707,1.05,0.861,0.864,1.08,0.87,0.636,0.726,0.627,0.402,0.484,0.453,0.428,0.51,0.97,0.881,0.838,0.919,0.873
NCI-H2087,–,0.64,0.662,0.695,0.643,0.55,0.471,0.48,0.497,–,0.202,0.163,0.154,0.207,0.821,0.788,0.715,0.736,0.675
NCI-H2126,0.624,0.808,0.623,0.706,0.756,0.774,0.593,0.693,0.713,0.964,0.878,0.965,0.936,0.913,1.01,1.02,0.986,1.01,1.01
NCI-H2170,0.274,0.265,0.26,0.252,0.282,0.746,0.693,0.698,0.762,0.759,0.792,0.73,0.568,0.604,1.28,1.24,0.96,1.02,1.27
NCI-H2228,0.342,0.415,0.357,0.332,0.321,0.649,0.514,0.534,0.683,–,0.184,0.147,0.118,0.165,0.457,0.504,0.52,0.495,0.571
NCI-H2347,–,0.445,0.362,0.399,0.405,0.491,–,0.494,0.336,–,0.508,0.231,0.71,0.458,0.441,0.698,0.67,0.674,0.62
NCI-H2405,–,0.967,0.687,0.878,0.839,0.677,0.641,0.544,0.668,–,0.619,–,0.528,0.642,–,0.78,0.52,0.772,0.82
NCI-H3122,0.19,0.195,0.214,0.203,0.215,0.922,0.874,0.917,1.05,0.0822,0.0926,0.0643,0.131,0.0575,0.31,0.272,0.274,0.259,0.361
PC-3 [JPC-3],–,1.24,1.12,1.05,1.14,0.8,0.768,0.818,0.644,0.782,0.649,0.655,0.736,0.696,0.95,1.03,0.978,1.02,1
PC-14,–,0.135,0.133,0.125,0.154,0.893,0.966,0.849,0.806,–,0.272,0.158,0.149,0.115,0.938,0.867,0.878,0.974,0.982
RERF-LC-KJ,0.491,0.525,0.477,0.501,0.536,0.608,0.547,0.57,0.534,1.31,1.3,1.26,1.31,1.25,0.845,0.791,0.769,0.779,0.846
SK-LU-1,–,1.06,0.898,0.865,0.715,0.386,0.341,0.339,0.354,–,0.234,0.169,0.22,0.201,0.742,0.989,0.769,0.778,0.891
SK-MES-1,–,0.952,0.915,0.86,0.742,0.669,0.666,0.584,0.542,0.676,0.973,0.86,0.8,0.688,0.919,0.985,1.04,0.912,0.962
SW 1573,0.79,0.9,0.792,0.777,0.782,0.715,0.636,0.504,0.482,0.179,0.314,0.289,0.633,0.217,0.802,0.94,0.697,0.755,0.782
UMC-11,0.761,0.806,0.727,0.822,0.871,0.482,0.446,0.458,0.533,1.14,1.12,0.85,0.939,1.07,0.772,0.636,0.591,0.572,0.596
